In ChEMBL document CHEMBL1145916, “A method for designing conformationally restricted analogues based on allylic strain: synthesis of a novel class of noncompetitive NMDA receptor antagonists having the acrylamide structure” (J Med Chem, 2003):

biological target: Glutamate NMDA receptor; assay: Binding affinity for N-methyl-D-aspartate glutamate receptor of cerebral cortical synaptic membranes from rats using [3H]MK-801 as radioligand

IC50 | SMILES
3.6 µM | CCN(CC)C(=O)/C(=C\C1CCCN1)c1ccccc1 (stereo not given)
> 1000 µM | O=C(/C(=C\C1CCCN1)c1ccccc1)N1CCNCC1 (stereo not given)
0.54 µM | CCCN(CCC)C(=O)/C(=C\C1CCCN1)c1ccccc1 (stereo not given)
0.53 µM | CCCN(CCC)C(=O)/C(=C\C(N)CC)c1ccccc1 (stereo not given)
1.7 µM | CCCN(CCC)C(=O)/C(=C\C1CCCN1)c1ccccc1F (stereo not given)
0.74 µM | CCCN(CC1CC1)C(=O)/C(=C\C1CCCN1)c1ccccc1 (stereo not given)
> 1000 µM | CCCN(CCC)C(=O)/C(=C\C1CCCN1)c1ccc(C)cc1 (stereo not given)
13 µM | CCCN(CCC)C(=O)/C(=C\C1CCCN1)c1ccc(F)cc1 (stereo not given)
160 µM | CCCN(CCC)C(=O)/C(=C\C1CCCN1)c1ccc(OC)cc1 (stereo not given)
16 µM | O=C(/C(=C\C1CCCN1)c1ccccc1)N1CCCCCC1 (stereo not given)
0.2 µM | CC[C@H](N)[C@@H]1C[C@@]1(C(=O)N(CC)CC)c1ccccc1
4.2 µM | CCCCN(CCCC)C(=O)/C(=C\C1CCCN1)c1ccccc1 (stereo not given)
0.52 µM | C=C(C)CN(CC)C(=O)/C(=C\C1CCCN1)c1ccccc1 (stereo not given)
1 µM | CCN(CC)C(=O)[C@@]1(c2ccccc2)C[C@H]1C1CCCN1 (stereo not given in full)
0.42 µM | CCCN(CCC)C(=O)/C(=C\C1CCCN1)c1cccc(F)c1 (stereo not given)
